Values of other authors as cited in patent publication US20150182489A1, “GOLD (III) COMPOUNDS AND USE FOR TREATING CANCER” (King Abdulaziz City for Science and Technology, priority 2013, published 2015).
Where two headings read alike, the source gives them in different places.

Compound	renal histopathology (rats; rats, 0.4 mg/kg intraperitoneally for 8 weeks (Ravindra et al))	renal histopathology (rats; rats, 15 mg/kg of body weight intraperitoneally (Hanigan et al))	renal histopathology (rats; single intraperitoneal dose of 7.5 mg/kg (Atasayara et al))	hepatic histopathology (rats liver; 10 mg/kg (Avci et al))	hepatic histopathology (rats liver; single intraperitoneal 6.5 mg/kg dose (Kart et al))	hepatotoxicity relative to 5-FU treatment (rats liver; rats liver (El-Sayyad et al))
N.N.[Cl][Pt][Cl] [cisplatin, cis-diamminedichloroplatinum(II)]	marked proximal tubular dilation and desquamation along with acute tubular necrosis	grade 4 tubular necrosis	remarkable epithelial vacuolation, necrosis, and desquamation of cells with protein casts in renal tubules	sinusoidal congestion, hydropic and vacuolar degeneration, extensive disorganization in hepatocytes, and significant fibrosis around central venules and expanded periportal areas	moderate to severe hydropic degeneration in centrilobular zones extending towards the portal region	
COc1cccc2c1C(=O)c1c(O)c3c(c(O)c1C2=O)C[C@@](O)(C(=O)CO)C[C@@H]3O[C@H]1C[C@H](N)[C@H](O)[C@H](C)O1 [doxorubicin]						increased hepatoxicity in comparison to 5-FU treatment
